{"source": "patent US20230167132A1", "about": "“FORMS AND COMPOSITIONS OF INHIBITORS OF PLASMA KALLIKREIN” (Takeda Pharmaceutical Company Limited, priority 2020, published 2023)", "assay_type_in_all_cases": "physicochemical", "key": {"[1]": {"assay": "Storage for one week at 40° C./75% RH and 25° C./97% RH, XRPD", "details": "for stability under storage: summary of scaled-up solid forms, conditions not restated"}, "[2]": {"assay": "Gravimetric vapour sorption (GVS) analysis", "details": "for XRPD post GVS analysis: change of solid form after GVS; for GVS hygroscopicity: classification in words; for GVS mass increase: between 0 and 90% RH"}, "[3]": {"assay": "Intrinsic Dissolution Rate (IDR), Sirius inForm", "details": "for IDR Sector 1 average (pH 2.0) / IDR Sector 1 pH 2.0: pH 2.0, 37° C.; for XRPD Analysis Post Dissolution: solid form of disc after IDR analysis; for IDR Sector 1 pH 2.0: individual runs; for sector 1 IDR compared to free base form Compound 1 Form 1 / other forms: pH 2.0, comparison in words", "method": "About 40 mg of the sample was compressed in a 6 mm disc recess, under 100 kg for 2 minutes, with greaseproof paper on the compression base, to form nondisintegrating discs. The discs were then plugged with a bung so that only one surface was exposed to the media during analysis and transferred to the Sirius inForm dissolution apparatus. Analysis was performed at 37° C. in 40 mL media (36 mL ISA water, 4 mL 0.1 M Acetate Phosphate Buffer). Dissolution data were collected over 4 pH sectors (pH 2.0, 5.5, 6.5, and 7.4) for a total of 2 hours—30 minutes per sector, with UV spectra collected every 30 seconds. A stir speed of 225 rpm was used with a 10 mm path length probe. The IDR was calculated based on the surface area of the 3/6/8 mm disc recess used (28.3 mm2 surface area). XRPD analysis was performed on all samples, both after compression of the material into the disc recess, and post dissolution analysis to observe any change in form. XRPD diffractograms were collected on the Bruker C2."}, "[4]": {"details": "one week (7 days), scaled-up / characterised material"}, "[5]": {"details": "one week (7 days), scaled-up / characterised material, listed as Form 2"}, "[6]": {"details": "one week, material isolated from salt/cocrystal screening experiments"}}, "note": "“And” between values parts separate entries of the source, which are not always exact repeats. Equal values may be shown once."}
{"smiles": "O=C(NCc1ncn2ccc(Cl)c(F)c12)c1cn(Cc2cn3cc(C4CC4)ccc3n2)nn1", "note": "[Amorphous form of Compound 1, N-((7-chloro-8-fluoroimidazo[1,5-a]pyridin-1-yl)methyl)-1-((6-cyclopropylimidazo[1,2-a]pyridin-2-yl)methyl)-1H-1,2,3-triazole-4-carboxamide]", "values": [{"measurement": "form conversion upon heating", "setting": "[1]; heating to 150° C.", "value": "convert to Form 1"}, {"measurement": "Storage 25° C./97% RH, XRPD", "setting": "[1]; [4]", "value": "convert to Form 1"}, {"measurement": "Storage 40° C./75% RH, XRPD", "setting": "[1]; [4]", "value": "convert to Form 1"}, {"measurement": "XRPD post GVS analysis", "setting": "[2]", "value": "convert to Form 1"}]}
{"smiles": "O=C(NCc1ncn2ccc(Cl)c(F)c12)c1cn(Cc2cn3cc(C4CC4)ccc3n2)nn1", "note": "[Compound 1 Form 2, N-((7-chloro-8-fluoroimidazo[1,5-a]pyridin-1-yl)methyl)-1-((6-cyclopropylimidazo[1,2-a]pyridin-2-yl)methyl)-1H-1,2,3-triazole-4-carboxamide]", "values": [{"measurement": "Storage 25° C./97% RH, XRPD", "setting": "[1]; [4]", "value": "Mixture of Compound 1 - Form 1, Compound 1 -"}, {"measurement": "Storage 40° C./75% RH, XRPD", "setting": "[1]; [4]", "value": "Free base, Compound 1 - Form 1"}, {"measurement": "Storage 25° C./97% RH, XRPD", "setting": "[1]; [5]", "value": "Peaks corresponding to a suspected hydrated phase"}, {"measurement": "Storage 40° C./75% RH, XRPD", "setting": "[1]; [5]", "value": "convert to Form 1"}, {"measurement": "GVS increase in mass", "setting": "[2]; between 80 and 90% RH", "value": 4, "unit": "%"}, {"measurement": "XRPD post GVS analysis", "setting": "[2]", "value": "decrease. Mixture of Freebase Patterns 2 & 3"}, {"measurement": "XRPD post GVS analysis", "setting": "[2]; listed as Form 2", "value": "convert to Form 1"}, {"measurement": "GVS hygroscopicity", "setting": "[2]", "value": "Hygroscopic"}, {"measurement": "IDR Sector 1 average (pH 2.0)", "setting": "[3]", "value": 290.8, "unit": "μg/min/cm^2"}, {"measurement": "XRPD Analysis Post Dissolution", "setting": "[3]", "value": "Conversion to Compound 1 - Form 1"}]}
{"smiles": "O=C(NCc1ncn2ccc(Cl)c(F)c12)c1cn(Cc2cn3cc(C4CC4)ccc3n2)nn1", "note": "[Compound 1 Form 3, N-((7-chloro-8-fluoroimidazo[1,5-a]pyridin-1-yl)methyl)-1-((6-cyclopropylimidazo[1,2-a]pyridin-2-yl)methyl)-1H-1,2,3-triazole-4-carboxamide]", "values": [{"measurement": "Storage 25° C./97% RH, XRPD", "setting": "[1]; [4]", "value": "Unchanged by XRPD"}, {"measurement": "Storage 40° C./75% RH, XRPD", "setting": "[1]; [4]", "value": "Unchanged by XRPD"}, {"measurement": "GVS mass increase", "setting": "[2]", "value": 0.5, "unit": "%"}, {"measurement": "XRPD post GVS analysis", "setting": "[2]", "value": "between 0 and 90% RH. Unchanged by XRPD post"}, {"measurement": "GVS hygroscopicity", "setting": "[2]", "value": "Slightly hygroscopic"}]}
{"smiles": "O=C(NCc1ncn2ccc(Cl)c(F)c12)c1cn(Cc2cn3cc(C4CC4)ccc3n2)nn1.O=C(O)C[C@H](O)C(=O)O", "note": "[Compound 3]", "values": [{"measurement": "Storage 25° C./97% RH, XRPD", "setting": "[1]; [4]", "value": "unchanged by XRPD"}, {"measurement": "Storage 40° C./75% RH, XRPD", "setting": "[1]; [4]", "value": "unchanged by XRPD"}, {"measurement": "Storage 40° C./75% RH, XRPD", "setting": "[1]; [6]", "value": "Slight changes"}, {"measurement": "stability under storage", "setting": "[1]", "value": "stable under storage"}, {"measurement": "GVS mass increase", "setting": "[2]", "value": 0.22, "unit": "%"}, {"measurement": "XRPD post GVS analysis", "setting": "[2]", "value": "no observed change"}, {"measurement": "GVS hygroscopicity", "setting": "[2]; listed as Compound 3 Pattern 1", "value": "slightly hygroscopic"}, {"measurement": "GVS hygroscopicity", "setting": "[2]; listed as L-malate", "value": "reduced hygroscopicity"}, {"measurement": "IDR Sector 1 average (pH 2.0)", "setting": "[3]", "value": 1791, "unit": "μg/min/cm^2"}, {"measurement": "IDR Sector 1 pH 2.0", "setting": "[3]; listed as L-malate Pattern 1", "value": "1569 μg/min/cm^2 and 2013 μg/min/cm^2"}, {"measurement": "sector 1 IDR compared to free base form Compound 1 Form 1 / other forms", "setting": "[3]; listed as Compound 3 Form 1", "value": "highest IDR"}, {"measurement": "sector 1 IDR compared to free base form Compound 1 Form 1 / other forms", "setting": "[3]; listed as Compound 3 Pattern 1", "value": "increased sector 1 IDR"}, {"measurement": "XRPD Analysis Post Dissolution", "setting": "[3]; listed as Compound 3 Pattern 1", "value": "additional peaks observed in XRPD"}, {"measurement": "XRPD Analysis Post Dissolution", "setting": "[3]; listed as L-malate Pattern 1", "value": "Additional peaks observed"}]}
{"smiles": "O=C(NCc1ncn2ccc(Cl)c(F)c12)c1cn(Cc2cn3cc(C4CC4)ccc3n2)nn1.O=C(O)CCC(=O)O", "note": "[Compound 4]", "values": [{"measurement": "Storage 25° C./97% RH, XRPD", "setting": "[1]; [4]", "value": "unchanged by XRPD"}, {"measurement": "Storage 40° C./75% RH, XRPD", "setting": "[1]; [4]", "value": "unchanged by XRPD"}, {"measurement": "Storage 40° C./75% RH, XRPD", "setting": "[1]; [6]", "value": "unchanged"}, {"measurement": "stability under storage", "setting": "[1]", "value": "stable under storage"}, {"measurement": "GVS mass increase", "setting": "[2]", "value": 0.16, "unit": "%"}, {"measurement": "XRPD post GVS analysis", "setting": "[2]", "value": "no observed change"}, {"measurement": "GVS hygroscopicity", "setting": "[2]; listed as Compound 4 Pattern 1", "value": "non-hygroscopic"}, {"measurement": "GVS hygroscopicity", "setting": "[2]; listed as succinate", "value": "reduced hygroscopicity"}, {"measurement": "IDR Sector 1 average (pH 2.0)", "setting": "[3]", "value": 255.5, "unit": "μg/min/cm^2"}, {"measurement": "IDR Sector 1 pH 2.0", "setting": "[3]; listed as Succinate Pattern 1", "value": "270.8 μg/min/cm^2 and 240.1 μg/min/cm^2"}, {"measurement": "sector 1 IDR compared to free base form Compound 1 Form 1 / other forms", "setting": "[3]", "value": "increased sector 1 IDR"}, {"measurement": "XRPD Analysis Post Dissolution", "setting": "[3]; listed as Compound 4 Pattern 1", "value": "additional peaks observed in XRPD"}, {"measurement": "XRPD Analysis Post Dissolution", "setting": "[3]; listed as Succinate Pattern 1", "value": "Additional peaks observed"}]}
{"smiles": "O=C(NCc1ncn2ccc(Cl)c(F)c12)c1cn(Cc2cn3cc(C4CC4)ccc3n2)nn1.O=P(O)(O)O", "note": "[Compound 5]", "values": [{"measurement": "Storage 25° C./97% RH, XRPD", "setting": "[1]; [4]", "value": "unchanged by XRPD"}, {"measurement": "Storage 40° C./75% RH, XRPD", "setting": "[1]; [4]", "value": "unchanged by XRPD"}, {"measurement": "Storage 40° C./75% RH, XRPD", "setting": "[1]; [6]", "value": "unchanged"}, {"measurement": "stability under storage", "setting": "[1]", "value": "stable under storage"}, {"measurement": "GVS mass increase", "setting": "[2]", "value": 1.2, "unit": "%"}, {"measurement": "XRPD post GVS analysis", "setting": "[2]", "value": "no observed change"}, {"measurement": "GVS hygroscopicity", "setting": "[2]; listed as Compound 5 Pattern 1", "value": "slightly hygroscopic"}, {"measurement": "GVS hygroscopicity", "setting": "[2]; listed as phosphate", "value": "reduced hygroscopicity"}, {"measurement": "IDR Sector 1 average (pH 2.0)", "setting": "[3]", "value": 404.1, "unit": "μg/min/cm^2"}, {"measurement": "IDR Sector 1 pH 2.0", "setting": "[3]; listed as Phosphate Pattern 1", "value": "364.7 μg/min/cm^2 and 443.4 μg/min/cm^2"}, {"measurement": "sector 1 IDR compared to free base form Compound 1 Form 1 / other forms", "setting": "[3]", "value": "increased sector 1 IDR"}, {"measurement": "XRPD Analysis Post Dissolution", "setting": "[3]; listed as Phosphate Pattern 1", "value": "Partial conversion to Compound 1"}]}
{"smiles": "O=C(NCc1ncn2ccc(Cl)c(F)c12)c1cn(Cc2cn3cc(C4CC4)ccc3n2)nn1", "note": "[Compound 6]", "values": [{"measurement": "stability under storage", "setting": "[1]", "value": "stable under storage"}]}
{"smiles": "O=C(NCc1ncn2ccc(Cl)c(F)c12)c1cn(Cc2cn3cc(C4CC4)ccc3n2)nn1.O=C(O)C(O)C(O)C(=O)O", "note": "[Compound 7]", "values": [{"measurement": "Storage 25° C./97% RH, XRPD", "setting": "[1]; [4]", "value": "unchanged by XRPD"}, {"measurement": "Storage 40° C./75% RH, XRPD", "setting": "[1]; [4]", "value": "unchanged by XRPD"}, {"measurement": "Storage 40° C./75% RH, XRPD", "setting": "[1]; [6]", "value": "unchanged"}, {"measurement": "GVS mass increase", "setting": "[2]", "value": 3.4, "unit": "%"}, {"measurement": "XRPD post GVS analysis", "setting": "[2]", "value": "No observed change"}, {"measurement": "GVS hygroscopicity", "setting": "[2]; listed as Compound 7 Pattern 1", "value": "hygroscopic"}, {"measurement": "GVS hygroscopicity", "setting": "[2]; listed as L-Tartrate Pattern 1", "value": "Poorly crystalline, hygroscopic"}, {"measurement": "GVS hygroscopicity", "setting": "[2]; listed as L-tartrate", "value": "hygroscopic"}, {"measurement": "IDR Sector 1 average (pH 2.0)", "setting": "[3]", "value": 656.4, "unit": "μg/min/cm^2"}, {"measurement": "IDR Sector 1 pH 2.0", "setting": "[3]; listed as L-Tartrate Pattern 1", "value": "647.0 μg/min/cm^2 and 665.7 μg/min/cm^2"}, {"measurement": "XRPD Analysis Post Dissolution", "setting": "[3]", "value": "poorly crystalline post analysis"}]}
{"smiles": "O=C(NCc1ncn2ccc(Cl)c(F)c12)c1cn(Cc2cn3cc(C4CC4)ccc3n2)nn1", "note": "[Compound 11]", "values": [{"measurement": "Storage 40° C./75% RH, XRPD", "setting": "[1]; [6]", "value": "unchanged by XRPD"}]}
{"smiles": "CS(=O)(=O)O.O=C(NCc1ncn2ccc(Cl)c(F)c12)c1cn(Cc2cn3cc(C4CC4)ccc3n2)nn1", "note": "[Mesylate salt—Pattern 1]", "values": [{"measurement": "Storage 40° C./75% RH, XRPD", "setting": "[1]; [6]", "value": "changes to its XRPD pattern with peaks corresponding to Compound 1 Form 1 being present"}]}
{"smiles": "CS(=O)(=O)O.O=C(NCc1ncn2ccc(Cl)c(F)c12)c1cn(Cc2cn3cc(C4CC4)ccc3n2)nn1", "note": "[Mesylate salt—Pattern 2]", "values": [{"measurement": "Storage 40° C./75% RH, XRPD", "setting": "[1]; [6]", "value": "unchanged"}]}
{"smiles": "CS(=O)(=O)O.O=C(NCc1ncn2ccc(Cl)c(F)c12)c1cn(Cc2cn3cc(C4CC4)ccc3n2)nn1", "note": "[Mesylate salt—Pattern 3]", "values": [{"measurement": "Storage 40° C./75% RH, XRPD", "setting": "[1]; [6]", "value": "unchanged"}]}
